Results on eight sequences are retold here after the supplement of paper PMC3068080.

Data set [1] deals with TGFBR1 mRNA. Nature of the data set: remaining TGFBR1 mRNA relative to control siRNA (off-target knock-down) (fraction of control); quantification method: qPCR (R1), branched DNA (R2); higher = less knock-down. The protocol: (§1)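 Screen-hit siRNA duplexes (19-mer plus 3' dTdT overhang) were transiently transfected into HaCaT cells in 12-well plates. After 48 h, TGFBR1 and TGFBR2 mRNA were quantified by branched DNA assay (QuantiGene, normalised to HPRT1) or by SYBR qPCR (normalised to HPRT1/SMAD4). Values are the remaining mRNA relative to control-siRNA-transfected cells; 1-2 biological replicates.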
For orientation: Quantitative PCR measures a nucleic acid by following its amplification.

Data set [2] has as its system TGFBR2 mRNA. Put plainly: remaining TGFBR2 mRNA relative to control siRNA (off-target knock-down) (fraction of control); quantification method: qPCR (R1), branched DNA (R2); higher = less knock-down. On the procedure:
as §1

Data set [3] deals with TGFBR1 mRNA. Put plainly: remaining TGFBR1 mRNA relative to control siRNA (off-target knock-down) (fraction of control); quantification method: qPCR; higher = less knock-down. On the procedure: as §1
The subject of data set [4] is TGFBR2 mRNA. Put plainly: remaining TGFBR2 mRNA relative to control siRNA (off-target knock-down) (fraction of control); quantification method: qPCR; higher = less knock-down. The protocol:
as §1

Data set [5] deals with TGFBR1 mRNA. Put plainly: remaining TGFBR1 mRNA relative to control siRNA (off-target knock-down) (fraction of control); quantification method: branched DNA (R1), qPCR (R2); higher = less knock-down. The protocol: as §1
Data set [6] relates to TGFBR2 mRNA. Put plainly: remaining TGFBR2 mRNA relative to control siRNA (off-target knock-down) (fraction of control); quantification method: branched DNA (R1), qPCR (R2); higher = less knock-down. On the procedure: as §1

Consider AUAGACCAUCCCCCUUCUUTT, for which, in the data set on TGFBR1 mRNA [1], the “remaining TGFBR1 mRNA” value was found to be 0.46. Further, the “remaining TGFBR2 mRNA” value in the data set with TGFBR2 mRNA [2] came to 0.95.
With AUGAUGUCAUCGGCUGUGGTT, the “remaining TGFBR1 mRNA” value in the data set on TGFBR1 mRNA [3] turned out to be 0.68. The “remaining TGFBR2 mRNA” value in the data set on TGFBR2 mRNA [4] is 0.15.
With CUCUGGGGAUUUGGAGGAUTT, the “remaining TGFBR1 mRNA” value in the data set on TGFBR1 mRNA [5] stood at 1.07. Moreover, the “remaining TGFBR2 mRNA” value in the data set with TGFBR2 mRNA [6] came to 0.71.
For UCUCGCUGACGAAGCAGUATT the same measures were 1.1 and 0.75.
Regarding UCUGUCAUAGGAUCCAAAATT, the “remaining TGFBR1 mRNA” value in the data set on TGFBR1 mRNA [3] stood at 0.74. For the same sequence, in the data set with TGFBR2 mRNA [4], the “remaining TGFBR2 mRNA” value came out at 0.75.
Regarding UGCACCUGACUUUUCUCUGTT, the “remaining TGFBR1 mRNA” value with TGFBR1 mRNA [5] was 1.37. In the data set with TGFBR2 mRNA [6], the “remaining TGFBR2 mRNA” value is 0.72.
For UGUCUCCUCUCUUGUCCGUTT, in the data set on TGFBR1 mRNA [5], the “remaining TGFBR1 mRNA” value turned out to be 0.95. In the data set with TGFBR2 mRNA [6], the “remaining TGFBR2 mRNA” value worked out at 0.7.
For UUAUUUGGGUGGGCUGGGGTT, the “remaining TGFBR1 mRNA” value in the data set with TGFBR1 mRNA [5] is 0.98. In the data set on TGFBR2 mRNA [6], the “remaining TGFBR2 mRNA” value stood at 0.75.
